Where “and” joins values, the source holds several entries; their conditions need not be identical. Identical values can stand only once. Like-named read-outs stand apart in the source and are kept apart here.
Columns and labels:
[1] = tested on: EL4 h-2^b murine T-Lymphoma; experiment: In vitro cell growth, EL4 seeded petri dishes (Trypan blue count); assay type: cell-based; details: for Cells Alive ± STD: 72 hours
Experimental: (§1) EL4 h-2^b murine T-Lymphoma (2x10⁶ cells) and P815 H-2^d mastocytoma cells (2x10⁶ cells) (kindly provided by Prof. Gideon Berke at the Weizmann Institute of Sciences, Rehovot, Israel) suspended in 2 ml RPMI-HEPES supplemented with […] and 10% fetal calf serum (FCS) were seeded in every one of 10 petri dishes for each of five groups for the EL4 cells and two groups for the P815 cells. […] Group E dishes were co-cultivated with 0.1 ml RPMI-HEPES alone.
(§2) Petri dishes were incubated for 72 hours at 37°C in 5% CO₂ atmosphere. The cells harvested from the petri dishes were then centrifuged, diluted with 1% Trypan blue and counted on a Neubauer chamber.

[2] = tested on: patients with acute hemorraghic diarrhea; experiment: Intravenous treatment of patients with acute hemorrhagic diarrhea; assay type: in vivo, human
Experimental: Rectoscopies were performed in all patients immediately before treatment, 2 and 7 days later. Two (2) of the patients accepted to be biopsed at the moment of the first and second rectoscopies.

Giardia lamblia = experiment: Patients with malabsorption syndrome (MAS) caused by Giardia lamblia; assay type: in vivo, human
Excerpt: Volunteer # 1: Type II MAS with positive isolation of Giardia lamblia in duodenal washings and confirmation of the disease by histopathology. […] One month later, patient 1 presented symptoms and signs of recurrence of the disease, with positive isolation of parasites in feces.
Volunteer # 2: with diffuse abdominal pain, loss of body weight and steatorrhea.

[3] = tested on: Foot-and-mouth disease virus (FMDV); assay type: in vivo, Swiss mice
[4] = tested on: P815 H-2^d mastocytoma cells; experiment: In vitro cell growth, P815 seeded petri dishes (Trypan blue count); assay type: cell-based
Experimental: as §1, §2

herpes simplex = experiment: Evolution of recidivant periorificial herpes simplex infection in volunteers; assay type: in vivo, human
Experimental: Patients were divided into 3 groups: one of the groups (n=4) received acyclovir by oral route and topical applications of the same drug. […] Experiments began with the appearance of the next episode of herpes, just in the moment when vesicles appeared.
All these patients were controlled monthly during the following 4 months. During this time, group A patients presented episodes with a pattern similar to that they had before the experiment was performed. […] The remaining two presented an episode of herpes 2.8 and 3.3 months later.

[5] = tested on: patient with an history of ulcerative colitis; experiment: Intravenous treatment of a patient with ulcerative colitis; assay type: in vivo, human
herpes zoster = experiment: Herpes zoster infection in patients; assay type: in vivo, human
Excerpt: PATIENT A: who presented a grade II vesical transitional carcinoma that was endoscopically resected. 60 days after resection they presented their first herpetic episode in chest, of 10 days of evolution. 175 days later, a second episode was presented, beginning with hyper and parastesy in the affected area and sudden appearance of vesicles.
PATIENT B: without any apparent disease. 20 and 12 months before they presented two episodes of herpes zoster in the right submammary area, of high intensity, with exquisite pain that made impossible contact with clothes, each episode lasting 3 weeks. At the present time, the patient presented their third episode, preceded by fever (during 48 hours), with crusted vesicles, some of them impetiginized.
PATIENT C: with a breast cancer, under chemo and hormone therapy. After each chemotherapy schedule received, they developed an herpetic episode in the left leg.

Cryptococcus neoformans = experiment: Cryptococcoses in experimentally infected mice; assay type: in vivo, Swiss mice; details: 0.1 ml 0.2% lidocaine i.p. twice a day
Experimental: Animals: 5-7 month old female Swiss mice were used. Experimental schedule: mice received by intraperitoneal route 0.5 ml of a suspension of 10⁷ Cryptococcus neoformans grown in Sabureaud medium.
Two animals of each group (experimental and control groups) were sacrificed at 2, 5 and 10 days post-infection and samples of liver, pancreas, brain, spleen, lung, kidney and bowel were obtained for microscopic examination.

[6] = Mus musculus, 72 h, read-out: I/C: Percentual increment over control growth
[7] = Volunteer # 2, day 7 post-treatment
[8] = herpes simplex episode, ACV oral+topical, lidocaine 5 ml 2% i.v. twice a day 2 days

SMILES: CCN(CC)CC(=O)Nc1c(C)cccc1C [lidocaine]
- Cells Alive ± STD ([1]; Group A, 0.1 ml 2% lidocaine in 2 ml, 2 millions seeded, control 5.92E+06): 5.16E+06 ± 0.04 millions of cells
- Dead cells ([1]; Group A, 2% lidocaine, control 2.08E+06): 2.78E+06
- Cells Alive ± STD ([1]; Group B, 0.1 ml 0.5% lidocaine): 5.90E+06 ± 0.03 millions of cells
- Dead cells ([1]; Group B, 0.5% lidocaine): 1.64E+06
- Dead cells ([1]; Group C, 0.05% lidocaine): 1.52E+06
- Cells Alive ± STD ([1]; Group C, 0.1 ml 0.05% lidocaine): 5.46E+06 ± 0.01 millions of cells
- Dead cells ([1]; Group D, 0.005% lidocaine): 1.12E+06
- Cells Alive ± STD ([1]; Group D, 0.1 ml 0.005% lidocaine): 3.48E+06 ± 0.02 millions of cells
- inhibition at 0.005 % [1, 6]: 41.2%
- inhibition at 0.05 % [1, 6]: 7.77%
- inhibition at 0.5 % [1, 6]: 0.34%
- inhibition at 2 % [1, 6]: 12.8%
- cytotoxicity at 2 % ([1]; Mus musculus, EL4, 72 h, read-out: amount of dead cells): 35%
- amount of dead cells ([1]; groups B to E (0.5%, 0.05%, 0.005% lidocaine and control), 4320 min): 20-25%
- Symptomatology ([2]; 4 patients, 5 ml 2% solution i.v. twice a day for 2 days, after 48 hours of treatment): abolishment of symptomatology
- Microscopic examination of mucosa ([2]; second biopsy (2 patients)): Slight chronic inflammatory process with indemnity of epithelium
- Rectoscopy ([2]; second rectoscopy, 2 days after start of treatment): congestive and edematous mucosa, without hemorrhages and erosions
- Rectoscopy ([2]; third rectoscopy, 7 days later): normal mucosa
- D-xylose and Van der Kamer tests (Giardia lamblia; Volunteer # 1, five days later): normal values
- Enteric histopathological examination (Giardia lamblia; Volunteer # 1, five days later (type II MAS before)): type I MAS
- isolation of parasites in feces (Giardia lamblia; Volunteer # 1, i.v. twice a day 2 days, five days later): negative results
- All tests performed (Giardia lamblia; Volunteer # 1, thirty days later): normalization of enteric function with negative isolation of parasites
- D-xylose and Van der Kamer tests (Giardia lamblia; [7]): normal
- Symptoms (Giardia lamblia; [7]): asymptomatic
- microscopic examination of enteric mucosa (Giardia lamblia; Volunteer # 2, day 7 post-treatment (type II MAS before)): type I MAS
- Overall status (Giardia lamblia; Volunteer # 2, day 28 post-treatment): asymptomatic, with gain of weight, normal tests, negative isolation of parasites and a normalization of the microscopic aspect of the enteric mucosa
- isolation of parasites (Giardia lamblia; Volunteer # 2, i.v. twice a day 2 days (5 ml, 2%), day 7 post-treatment): negative results
- PRESENCE OF PMNs ([3]; 0.1 ml 0.1% i.p., 8am and 8pm day 1 (group E)): 80-90%
- PRESENCE OF PMNs ([3]; 0.1 ml 0.1% i.p., 8am and 8pm on day 1 and day 2 (group F)): 10%
- PRESENCE OF PMNs ([3]; 0.1 ml 0.2% i.p., 8am and 8pm day 1 (group C)): 30-40%
- PRESENCE OF PMNs ([3]; 0.1 ml 0.2% i.p., 8am day 1 only (group B)): 60-70%
- PRESENCE OF PMNs ([3]; 0.1 ml 0.2% i.p., 8am, 8pm day 1 and 8am day 2 (group D)): 30%
- PRESENCE OF PMNs ([3]; 0.1 ml 0.4% i.p., 8am day 1 only (group A)): 10%
- PRESENCE OF PMNs ([3]; 0.1 ml 0.8% lidocaine i.m. twice a day, 24 hours before FMDV infection): 10%
- PRESENCE OF PMNs ([3]; 0.1 ml lidocaine 0.2% i.m. twice a day 2 days (group C)): 80-90%
- PRESENCE OF PMNs ([3]; 0.1 ml lidocaine 0.4% i.m. twice a day 2 days (group B)): 60-70%
- PRESENCE OF PMNs ([3]; 0.1 ml lidocaine 0.8% i.m. twice a day 2 days (group A)): 30-50%
- Microscopic examination of the pancreas ([3]; groups A (lidocaine endovenous 24 h after FMDV) and C (simultaneous), 48 hours post-infection): minimal inflammatory damage with absence of necrosis
- Microscopic examination of the pancreas ([3]; groups A and C, 72 hours post-infection): no pancreatic damage could be found
- PRESENCE OF PMNs ([3]; lidocaine concentration 0.1%, i.m. twice a day 2 days): 50-60%
- PRESENCE OF PMNs ([3]; lidocaine concentration 0.2%, i.m. twice a day 2 days): 20-30%
- PRESENCE OF PMNs ([3]; lidocaine concentration 0.3%, i.m. twice a day 2 days): 10-20%
- PRESENCE OF PMNs ([3]; lidocaine concentration 0.4%, i.m. twice a day 2 days): 10-20%
- PRESENCE OF PMNs ([3]; lidocaine concentration 0.5%, i.m. twice a day 2 days): 10-20%
- PRESENCE OF PMNs ([3]; oral route, 0.1 ml of 2% solution twice a day 2 days): 50-100%
- PRESENCE OF PMNs ([3]; oral route, 0.2 ml of 2% solution twice a day 2 days): 30-60%
- PRESENCE OF PMNs ([3]; oral route, 0.3 ml of 2% solution twice a day 2 days): 30-60%
- PRESENCE OF PMNs ([3]; oral route, 0.4 ml of 2% solution twice a day 2 days): 50%
- PRESENCE OF PMNs ([3]; oral route, 0.5 ml. of 2% solution twice a day 2 days): 20-30%
- Alive Cells ± STD ([4]; Group A, 0.1 ml 0.005% lidocaine, 72 hours, control 4.66E+06): 3.77E+06 ± 0.11 millions of cells
- Dead cells ([4]; Group A, 0.1 ml 0.005% lidocaine, control 2.33E+06): 1.96E+06
- inhibition at 0.005 % ([4]; Mus musculus, P815, 72 h, read-out: I/C: Percentual increment over control growth): 19.1%
- Pain (herpes simplex; Group B, by 48 hours after treatment was begun): no pain existed
- Vesicle evolution (herpes simplex; Group B, lidocaine i.v. at appearance of vesicles): Neither rupture of vesicles nor crust formation was found
- Duration of lesions (herpes simplex; [8]): 4.5 days
- Duration of symptoms (herpes simplex; [8]): 2 days
- FIRST EPISODE AFTER TREATMENT (herpes simplex; individual patients, followed monthly for 4 months): 84 days and 94 days
- patients who did not present another episode of the disease (herpes simplex; patients who received lidocaine (groups B and C), 4 months follow-up): 4 of 6
- time to next episode of herpes (herpes simplex; the remaining two lidocaine patients): 2.8 months and 3.3 months
- Diarrhea ([5]; 4 i.v. doses each 12 hours per week, 4 weeks (5 ml, 2% solution), during the treatment): diarrhea disappeared
- Colonoscopy ([5]; 5th week): congestive and edematous mucosa; no erosion could be observed
- histopathological diagnosis ([5]; biopsy, 5th week): quiescent ulcerative colitis
- Evolution of herpetic lesions (herpes zoster; PATIENT C, breast cancer under chemo and hormone therapy): residual hyperesthesia persisted
- time to healing (crusts detached / all vesicles healed) (herpes zoster; individual patients (A, B)): ≤ 7 day post-treatment and 10 day post-treatment
- time to disappearance of pain (herpes zoster; individual patients (A, B), i.v. twice a day 2 days): ≤ 5 days and 5 days
- Microscopic examination of organs (Cryptococcus neoformans; 48 hours post-infection): only a generalized vascular congestion
- Microscopic examination of organs (Cryptococcus neoformans; 5 days post-infection): discrete mononuclear cell infiltrate in liver parenchyma and swelling of pancreatic tissue, with absence of inflammatory cells
- Microscopic examination of organs (Cryptococcus neoformans; day 10 pi): scarce granulomas in hepatic parenchyma

Source: patent EP0643964A2 (priority 1993, dated 1995)
